Laboratory results: US7652047B2, “Phenylamino isothiazole carboxamidines as MEK inhibitors” (Ardea Biosciences, Inc., priority 2005, dated 2010)
Read-outs that look alike come from different tables or passages of the source.

Target: T1, MEK1^CA (human GST-MEK1, constitutively active, Ser218Asp and Ser222Asp) (Homo sapiens, UniProt Q02750, S218D/S222D)
T1 construct: GST; made in house; host or cells: Escherichia coli
Experiment: MEK1 enzymatic activity assay (MEK1^CA / ERK2 / MBP, [γ-33P]ATP incorporation)
Type: biochemical
From the text: Materials and preparation of reagents: Human GST-MEK1 and the constitutively active allele GST-MEK1^CA (harboring the mutations Ser218Asp and Ser222Asp) were subcloned into the […] expression vector pGEM4Z (Promega, Madison, Wis.) from the wild type human MEK1 cDNA. GST-MEK1^CA was expressed in Escherichia coli and partially purified using Glutathione Sepharose 4B affinity resin (Amersham Pharmacia Biotech, Piscataway, N.J.). The ERK2 allele was subcloned from MAPK2/Erk2 cDNA (wild type) in pUSEamp (Upstate Biotechnology, Inc., Waltham, Mass.) into the vector pET21a (Novagen, Madison, Wis.) resulting in an N-terminal histidine-tagged mouse ERK2 allele. […] Myelin basic protein (MBP) was purchased from Gibco BRL (Rockville, Md.). EasyTides adenosine 5′-triphosphate (ATP) ([γ-^33P]) (NEN Perkin Elmer, Wellesley, Mass.) was the source of radiolabel for all kinase reactions. Activated Raf-1 (truncated) and activated MAPKinase 2/ERK2 were purchased from Upstate, Inc. (Lake Placid, N.Y.). 4-20% Criterion Precast gels were purchased from Bio-Rad (Hercules, Calif.).
A typical 25-microliter assay contained 0.002 nanomoles MEK1^CA, 0.02 nanomoles ERK2, 0.25 nanomoles MBP, 0.25 nanomoles unlabeled ATP, and 0.1 μCi [γ^33P] ATP. The screening assay essentially comprised four additions. Five μl of diluted compound were dispensed to 96-well assay plates. Ten μl of 2.5× enzyme cocktail (MEK1^CA and ERK2 only) were then added to each well followed by a pre-incubation for 30 minutes at ambient temperature. […] Finally, 100 μl of 10% trichloroacetic acid (TCA) were added and incubated for 30 minutes at room temperature to halt the reaction and precipitate radiolabeled protein products. Reaction products were harvested on glass fiber 96 well filter plates prewetted with water and 1% pyrophosphate. The filter plate was then washed 5 times with water. Water was displaced by absolute ethanol and the plate was allowed to air dry for 30 minutes at room temperature. A back seal was applied manually and 40 μl of scintillation cocktail were dispensed to each well. A top seal was applied and the plate was counted in the TopCount for two seconds per well.

[1] = Table 1, compounds of formula I, read-out: Avg IC50
[2] = Table 4, R' is (CH2)1 or 2-G, read-out: IC50
[3] = Table 2, Ar1-A contains an amido or indolo group, read-out: IC 50

T1 sequence (Q02750 whole entry S218D/S222D): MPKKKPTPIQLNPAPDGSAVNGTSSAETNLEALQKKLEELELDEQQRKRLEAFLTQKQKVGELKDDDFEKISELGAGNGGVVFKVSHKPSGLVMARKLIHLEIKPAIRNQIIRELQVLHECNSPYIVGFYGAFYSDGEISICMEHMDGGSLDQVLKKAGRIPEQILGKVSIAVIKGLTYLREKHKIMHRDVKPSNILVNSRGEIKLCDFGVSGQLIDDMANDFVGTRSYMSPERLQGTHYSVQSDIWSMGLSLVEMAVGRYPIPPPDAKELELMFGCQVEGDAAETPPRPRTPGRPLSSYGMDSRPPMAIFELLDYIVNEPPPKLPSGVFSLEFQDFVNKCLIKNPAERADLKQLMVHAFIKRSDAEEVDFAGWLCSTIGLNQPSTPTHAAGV

Row | SMILES | IC50 [1] | other results
1 | N=C(NCC(O)CO)c1c(O)nsc1Nc1ccc(I)cc1 (stereo not shown) [compound 216] | > 500 nM | 
2 | CC(Nc1snc(O)c1C(=N)NCC1CCCCC1)c1ccccc1 (stereo not shown) [compound 118] | > 500 nM | 
3 | Cc1cc(Nc2snc(O)c2C(=N)NC(C)CO)ccc1Oc1ccc(C(F)(F)F)cc1 (stereo not shown) [compound 386] | > 500 nM | 
4 | CC(CO)NC(=N)c1c(O)nsc1Nc1ccc(Oc2ccc(C(F)(F)F)cc2)c(Cl)c1 (stereo not shown) [compound 396] | 100 to 500 nM | 
5 | N=C(NCCO)c1c(O)nsc1Nc1ccc(Oc2cncnc2)cc1 [compound 171] | > 500 nM | 
6 | N=C(NCC1CCCCC1)c1c(O)nsc1Nc1ccc(Oc2ccc(Cl)cc2)cc1 [compound 140] | 1 to 100 nM | 
7 | CC(CO)NC(=N)c1c(O)nsc1Nc1ccc(OCc2ccccc2)cc1 (stereo not shown) [compound 265] | > 500 nM | 
8 | N=C(N[C@@H]1CC2CCC1C2)c1c(O)nsc1Nc1ccc(Oc2ccccc2)cc1 (stereo partly shown) [Cpd 22] | 1 to 100 nM | 
9 | N=C(NCC1CCCCC1)c1c(O)nsc1Nc1ccc(Sc2ccccc2)cc1 [drawing 826] |  | IC50 [2]: 1 to 100 nM
10 | N=C(NCC1CCCCC1)c1c(O)nsc1Nc1ccc2c(c1)Cc1ccccc1-2 [compound 111] | > 500 nM | 
11 | CC(C)NC(=N)c1c(O)nsc1Nc1ccc(C(=O)NC(C)C)cc1 [E-9] |  | IC50 [3]: 200 to 1000 nM
12 | CN(C)CCNC(=N)c1c(O)nsc1Nc1ccc(Oc2cc(F)cc(F)c2)cc1 [compound 418] | 100 to 500 nM | 
13 | N=C(NCCc1ccc(O)cc1)c1c(O)nsc1NCCc1ccc(O)cc1 [compound 114] | > 500 nM | 
14 | N=C(NCc1cccc2ccccc12)c1c(O)nsc1Nc1cc(C(F)(F)F)cc(C(F)(F)F)c1 [compound 68] | > 500 nM | 
15 | Cc1ccc(Cl)c(Oc2ccc(Nc3snc(O)c3C(=N)NC(C)C)cc2)c1 [compound 292] | 1 to 100 nM | 
16 | Cc1ccc(Nc2snc(O)c2/C(N)=N/O)cc1 [Cpd 3] | > 500 nM | 
17 | N=C(NCC1CCCCC1)c1c(O)nsc1Nc1ccc(N2CCCCC2)cc1 [compound 123] | > 500 nM | 
18 | CC(C)(C)C(CO)NC(=N)c1c(O)nsc1Nc1ccc(Oc2ccccc2)cc1 (stereo not shown) [compound 180] | 100 to 500 nM | 
19 | N=C(NCCN1CCNCC1)c1c(O)nsc1Nc1ccc(Oc2cc(F)cc(F)c2)cc1 [compound 412] | 1 to 100 nM | 
20 | CCCCCCCNC(=N)c1c(O)nsc1Nc1ccc(Oc2ccccc2)cc1 [Cpd 10] | 1 to 100 nM | 
21 | CC(C)N(O)C(=N)c1c(O)nsc1Nc1ccc(Oc2cc(Cl)ccc2Cl)cc1 [compound 455] | 1 to 100 nM | 
22 | CC(C)NC(=N)c1c(O)nsc1Nc1ccc(Oc2ccc(F)cc2)c(Br)c1 [compound 242] | 100 to 500 nM | 

Row | SMILES | IC50 [1] | other results
23 | N=C(NCC1CCCCC1)c1c(O)nsc1Nc1ccc(Oc2ccccc2)nc1 [drawing 828] |  | IC50 [2]: 100 to 500 nM
24 | C[C@H](NC(=N)c1c(O)nsc1Nc1ccc(Oc2ccccc2)cc1)c1ccccc1 [compound 34] | 100 to 500 nM | 
25 | N=C(NCC1CCCCC1)c1c(O)nsc1Nc1ccc(Oc2cc(Cl)ccc2Cl)cc1 [compound 441] | 1 to 100 nM | 
26 | N=C(NCc1ccccc1)c1c(O)nsc1Nc1ccc(Oc2ccccc2)cc1 [Cpd 20] | 100 to 500 nM | 
27 | N=C(NCCN1CCOCC1)c1c(Nc2ccc(Oc3ccccc3)cc2)s[nH]c1=O [compound 54] | 100 to 500 nM | 
28 | COCC(C)NC(=N)c1c(O)nsc1Nc1ccc(Oc2cccc(F)c2F)cc1C (stereo not shown) [compound 502] | 1 to 100 nM | 
29 | CC(C)NC(=N)c1c(O)nsc1Nc1ccc(Oc2ccccc2)cc1 [Cpd 28] | 1 to 100 nM | 
30 | N=C(NCC1CC1)c1c(O)nsc1Nc1ccc(Oc2ccccc2)cc1 [Cpd 19] | 1 to 100 nM | 
31 | Cc1cccc(Cl)c1Oc1ccc(Nc2snc(O)c2C(=N)NC(C)C)cc1 [compound 344] | > 500 nM | 
32 | Cc1ccc(F)c(Oc2ccc(Nc3snc(O)c3C(=N)NC(C)C)cc2)c1 [compound 347] | 1 to 100 nM | 
33 | N=C(N[C@H]1CC[C@H](O)CC1)c1c(O)nsc1Nc1ccc(Oc2ccccc2)cc1 [compound 152] | 1 to 100 nM | 
34 | Cc1ccc(Cl)cc1Oc1ccc(Nc2snc(O)c2C(=N)NC(C)CO)cc1 (stereo not shown) [compound 304] | 1 to 100 nM | 
35 | CC(C)NC(=N)c1c(O)nsc1Nc1ccc(Oc2cccc3ccccc23)cc1 [compound 340] | 1 to 100 nM | 
36 | N=C(NCC(O)CO)c1c(O)nsc1Nc1ccc(Cc2ccccc2)cc1 (stereo not shown) [compound 129] | 100 to 500 nM | 
37 | CC(C)N(O)C(=N)c1c(O)nsc1Nc1ccc(Oc2cc(F)cc(F)c2)cc1 [compound 421] | 1 to 100 nM | 
38 | N=C(NCCOc1ccccc1)c1c(O)nsc1Nc1ccc(Oc2ccccc2)cc1 [compound 36] | 100 to 500 nM | 
39 | CC(CO)NC(=N)c1c(O)nsc1Nc1ccc(Oc2ccccc2Br)cc1 (stereo not shown) [compound 295] | 1 to 100 nM | 
40 | N=C(NCC1CCCCC1)c1c(O)nsc1NCCc1ccccc1 [compound 120] | > 500 nM | 
41 | Cc1cc(Oc2ccccc2)ccc1Nc1snc(O)c1C(=N)NC(C)CO (stereo not shown) [compound 335] | 1 to 100 nM | 
42 | N=C(NC1(CO)CCCC1)c1c(O)nsc1Nc1ccc(Oc2ccccc2)cc1 [compound 190] | 100 to 500 nM | 
43 | N=C(NCC1CCCCC1)c1c(O)nsc1Nc1ccc(Oc2cc(F)cc(F)c2)cc1 [compound 423] | 1 to 100 nM | 
44 | N=C(NCC1CCCCC1)c1c(O)nsc1NCc1ccc(C(F)(F)F)cc1 [compound 108] | > 500 nM | 

Row | SMILES | IC50 [1] | other results
45 | CCCCCNc1snc(O)c1C(=N)NCC1CCCCC1 [compound 121] | > 500 nM | 
46 | N=C(NCCCCO)c1c(O)nsc1Nc1ccc(C(=O)Nc2ccccc2)cc1 [E-6] |  | IC50 [3]: > 1000 nM
47 | N=C(NCCN1CCOCC1)c1c(O)nsc1Nc1ccc(Oc2cc(F)cc(F)c2)cc1 [compound 413] | 100 to 500 nM | 
48 | N=C(NCC1CCCCC1)c1c(O)nsc1Nc1ccc(C(=O)Nc2ccccc2)cc1 [E-4] |  | IC50 [3]: > 1000 nM
49 | N=C(NCCc1ccccc1)c1c(O)nsc1Nc1ccc(Oc2ccccc2)cc1 [Cpd 14] | 100 to 500 nM | 
50 | C[C@H](NC(=N)c1c(O)nsc1Nc1ccc(Oc2ccccc2)cc1)[C@@H](O)c1ccccc1 [compound 159] | 1 to 100 nM | 
51 | CC(C)NC(=N)c1c(O)nsc1Nc1ccc(Oc2cccc(F)c2F)cc1 [compound 326] | 1 to 100 nM | 
52 | COCC(C)NC(=N)c1c(O)nsc1Nc1ccc(Oc2ccccc2)cc1 (stereo not shown) [compound 178] | 1 to 100 nM | 
53 | COC(=O)c1ccccc1Nc1snc(O)c1C(N)=NCC1CCCCC1 [compound 99] | > 500 nM | 
54 | N=C(NCC1CCCCC1)c1c(O)nsc1Nc1ccc(OC(F)F)cc1 [compound 95] | > 500 nM | 
55 | N=C(NCCOc1ccccc1)c1c(O)nsc1NCC1CCCO1 (stereo not shown) [compound 113] | > 500 nM | 
56 | C=CCNC(=N)c1c(O)nsc1Nc1ccc(Oc2ccccc2)cc1 [compound 200] | 1 to 100 nM | 
57 | Cc1cc(Oc2cccc(C(F)(F)F)c2)ccc1Nc1snc(O)c1C(=N)NC(CO)C(C)C (stereo not shown) [compound 492] | 100 to 500 nM | 
58 | Cc1cc(Oc2ccccc2)ccc1Nc1snc(O)c1C(=N)NC(C)C [compound 334] | 1 to 100 nM | 
59 | CC(CNC(=N)c1c(O)nsc1Nc1ccc(Oc2ccccc2)cc1)c1ccccc1 (stereo not shown) [Cpd 15] | 1 to 100 nM | 
60 | Cc1cc(Oc2ccc(F)cc2Cl)ccc1Nc1snc(O)c1C(=N)N(O)C(C)C [compound 462] | 100 to 500 nM | 
61 | N=C(NCC(O)CO)c1c(O)nsc1Nc1ccc(Oc2ccccc2C(=O)NCC(O)CO)cc1 (stereo not shown) [compound 508] | > 500 nM | 
62 | N=C(NCCO)c1c(O)nsc1Nc1ccc(C(=O)Nc2ccccc2)cc1 [drawing 809] |  | IC50 (Table 3, benzamides of formula X, read-out: IC 50): 100 to 500 nM
63 | N=C(NCCO)c1c(O)nsc1Nc1ccc(C2CCCCC2)cc1 [compound 172] | > 500 nM | 
64 | CC(O)CNC(=N)c1c(O)nsc1Nc1cc(F)c(Oc2cc(Cl)ccc2Cl)cc1F (stereo not shown) [compound 478] | 1 to 100 nM | 
